Twelve compounds from US20260274892A1, “MACROCYCLIC BROAD SPECTRUM ANTIBIOTICS” (RQx Pharmaceuticals, Inc., priority 2017, published 2026) can be followed below.

Each structure is given as a SMILES string.

For one assay, the system named is Escherichia coli ATCC 25922. Briefly: Minimum inhibitory concentration (MIC), CLSI broth micro-dilution, E. coli. The assay is classed as cell-based. Particulars: Escherichia coli, ATCC25922, 22 h, Table 6, cation adjusted Mueller Hinton Broth + 0.002% Tween-80, 35° C. Here is the method:
In vitro antimicrobial activity of each compound was determined by measuring minimal inhibitor concentrations (MICs) using the broth micro-dilution technique as approved by the Clinical and Laboratory Standards Institute (CLSI) (Methods for Dilution Antimicrobial Susceptibility Tests for Bacteria that Grow Aerobically; Approved Standard-Eighth Edition. CLSI document M07-A8. Wayne, PA: Clinical and Laboratroy Standards; 2009). Antibacterial activity was measure against two strains of bacteria: a Methicillin Resistant Staphylococcus aureus strain USA 200, (S. aureus) and Escherichia coli ATCC 25922 (E. coli), a clinically relevant Gram-negative strain. Cells were inoculated onto plates of Trypyticase Soy Agar or Luria Agar respectively and grown at 35° C. for 20 hours. Inocula suspensions were prepared by scraping cells into 1 mL of testing media (cation adjusted Mueller Hinton Broth supplemented with 0.002% v/v Tween-80) and diluting to a final OD600nm of 0.01.
Test compounds were prepared in DMSO at a concentration of 10 mg/mL. In protocol 1, the compound stocks were diluted into testing media at a concentration of 64 µg/ml and serial 2-fold dilutions were made in the same media, in 96-well U bottom microtiter dishes, for a total of 10 compound concentrations. In protocol 2, the compound stocks were diluted into testing media at a concentration of 4 µg/mL and serial 2-fold dilutions were made in the same media, in 96-well U bottom microtiter dishes, for a total of 10 compound concentrations. In protocol 3, compound stocks were diluted into testing media at a concentration of 0.5 μg/mL, with serial 2-fold dilutions conducted as described above. In protocol 4, compound stocks were diluted into testing media at a concentration of […], with serial 2-fold dilutions conducted as described above. Inocula suspensions were added to the 2-fold serial dilutions of test compounds to a final density of GD OD600nm of 0.0005 and incubated at 35° C. for 22 hours.
`C[C@@H]1NC(=O)[C@@H](N(C)C(=O)[C@H](CCN)NC(=O)c2c(N)cc(-c3ccc(C(C)(C)C)cc3)nc2Cl)c2ccc(OCCN)c(c2)-c2cc(ccc2OCCN)C[C@@H](C(=O)NCC#N)NC1=O` (racemic) [Compound 554, rac-(8S,11S,14S)-3,18-bis(2-aminoethoxy)-N-(cyanomethyl)-11-methyl-14-[methyl-[rac-(2S)-4-amino-2-[[4-amino-6-(4-tert-butylphenyl)-2-chloro-pyridine-3-carbonyl]amino]butanoyl]amino]-10,13-dioxo-9,12-diazatricyclo[13.3.1.12,6]icosa-1(18),2(20),3,5,15(19),16-hexaene-8-carboxamide]: the MIC came to 0.094 µM.
For the compound `Cc1nc(-c2ccc(OCCC(C)(C)C)cc2)nc(C)c1C(=O)N[C@@H](CCN)C(=O)N(C)[C@@H]1C(=O)N[C@@H](C)C(=O)N[C@H](C(=O)NCC#N)Cc2ccc(OCCN)c(c2)-c2cc1ccc2O` (racemic) [Compound 528, rac-(8S,11S,14S)-3-(2-aminoethoxy)-N-(cyanomethyl)-18-hydroxy-11-methyl-14-[methyl-[rac-(2S)-4-amino-2-[[2-[4-(3,3-dimethylbutoxy)phenyl]-4,6-dimethyl-pyrimidine-5-carbonyl]amino]butanoyl]amino]-10,13-dioxo-9,12-diazatricyclo[13.3.1.12,6]icosa-1(18),2(20),3,5,15(19),16-hexaene-8-carboxamide], the MIC was determined as 0.063 µM.
For the compound `Cc1nc(-c2cnc(OCCC(C)(C)C)nc2)nc(C)c1C(=O)N[C@@H](CCN)C(=O)N(C)[C@@H]1C(=O)N[C@@H](C)C(=O)N[C@H](C(=O)NCC#N)Cc2ccc(OCCN)c(c2)-c2cc1ccc2OCCN` (racemic) [Compound 550, rac-(8S,11S,14S)-3,18-bis(2-aminoethoxy)-N-(cyanomethyl)-11-methyl-14-[methyl-[rac-(2S)-4-amino-2-[[2-[2-(3,3-dimethylbutoxy)pyrimidin-5-yl]-4,6-dimethyl-pyrimidine-5-carbonyl]amino]butanoyl]amino]-10,13-dioxo-9,12-diazatricyclo[13.3.1.12,6]icosa-1(18),2(20),3,5,15(19),16-hexaene-8-carboxamide], the MIC worked out at 2 µM.
In the case of `Cc1nc(-c2ccc(OC3CCCCC3)cc2)nc(N)c1C(=O)N[C@@H](CCN)C(=O)N(C)[C@@H]1C(=O)N[C@@H](C)C(=O)N[C@H](C(=O)NCC#N)Cc2ccc(OCCN)c(c2)-c2cc1ccc2OCCN` (racemic) [Compound 547, rac-(8S,11S,14S)-3,18-bis(2-aminoethoxy)-N-(cyanomethyl)-11-methyl-14-[methyl-[rac-(2S)-4-amino-2-[[4-amino-2-[4-(cyclohexoxy)phenyl]-6-methyl-pyrimidine-5-carbonyl]amino]butanoyl]amino]-10,13-dioxo-9,12-diazatricyclo[13.3.1.12,6]icosa-1(18),2(20),3,5,15(19),16-hexaene-8-carboxamide], the MIC worked out at 0.094 µM.
Same read-out and setting: the result for `Cc1nc(-c2ccc(OC3CCCCC3)cc2)nc(C)c1C(=O)N[C@@H](CCNC(=O)NO)C(=O)N(C)[C@@H]1C(=O)N[C@@H](C)C(=O)N[C@H](C(=O)NCC#N)Cc2ccc(OCCN)c(c2)-c2cc1ccc2OCCN` [Compound 512, (8S,11S,14S)-3,18-bis(2-aminoethoxy)-N-(cyanomethyl)-14-[[(2S)-2-[[2-[4-(cyclohexoxy)phenyl]-4,6-dimethyl-pyrimidine-5-carbonyl]amino]-4-(hydroxycarbamoylamino)butanoyl]-methyl-amino]-11-methyl-10,13-dioxo-9,12-diazatricyclo[13.3.1.12,6]icosa-1(18),2(20),3,5,15(19),16-hexaene-8-carboxamide] reads 1 µM.
Regarding `Cc1nc(-c2ccc(N3C[C@H](C)C[C@H](C)C3)cc2)nc(C)c1C(=O)N[C@@H](CCN)C(=O)N(C)[C@@H]1C(=O)N[C@@H](C)C(=O)N[C@H](C(=O)NCC#N)Cc2ccc(OCCN)c(c2)-c2cc1ccc2OCCN` (racemic) [Compound 327, rac-(8S,11S,14S)-3,18-bis(2-aminoethoxy)-N-(cyanomethyl)-11-methyl-14-[methyl-[rac-(2S)-4-amino-2-[[4,6-dimethyl-2-[4-[rac (3S,5R)-3,5-dimethyl-1-piperidyl]phenyl]pyrimidine-5-carbonyl]amino]butanoyl]amino]-10,13-dioxo-9,12-diazatricyclo[13.3.1.12,6]icosa-1(18),2(20),3,5,15(19),16-hexaene-8-carboxamide], the MIC worked out at 0.13 µM.

Still in this assay, the particulars now being: Escherichia coli, ATCC25922, 22 h, Table 7, cation adjusted Mueller Hinton Broth + 0.002% Tween-80, 35° C.
With `Cc1nc(-c2ccc(C(C)(C)C)cc2)nc(C)c1C(=O)N[C@@H](CCN)C(=O)N(C)[C@@H]1C(=O)N[C@@H](C)C(=O)N[C@H](C(=O)NCC#N)Cc2ccc(O)c(c2)-c2cc1ccc2OCCNCCCN` (racemic) [Compound 602, rac-(8S,11S,14S)-18-[2-(3-aminopropylamino)ethoxy]-N-(cyanomethyl)-3-hydroxy-11-methyl-14-[methyl-[rac-(2S)-4-amino-2-[[2-(4-tert-butylphenyl)-4,6-dimethyl-pyrimidine-5-carbonyl]amino]butanoyl]amino]-10,13-dioxo-9,12-diazatricyclo[13.3.1.12,6]icosa-1(18),2(20),3,5,15(19),16-hexaene-8-carboxamide], the MIC is 0.063 µM.
In the case of `Cc1nc(-c2ccc(OC3CCCCC3)cc2)nc(C)c1C(=O)N[C@@H](CCNS(N)(=O)=O)C(=O)N(C)[C@@H]1C(=O)N[C@@H](C)C(=O)N[C@H](C(=O)NCC#N)Cc2ccc(O)c(c2)-c2cc1ccc2OCCN` (racemic) [Compound 615, rac-(8S,11S,14S)-18-(2-aminoethoxy)-N-(cyanomethyl)-3-hydroxy-11-methyl-14-[methyl-[rac-(2S)-2-[[2-[4-(cyclohexoxy)phenyl]-4,6-dimethyl-pyrimidine-5-carbonyl]amino]-4-(sulfamoylamino)butanoyl]amino]-10,13-dioxo-9,12-diazatricyclo[13.3.1.12,6]icosa-1(18),2(20),3,5,15(19),16-hexaene-8-carboxamide], the MIC came to 1 µM.
On to `Cc1nc(-c2ccc(C(C)(C)C)cc2)nc(C)c1C(=O)N[C@@H](CCN)C(=O)N(C)[C@@H]1C(=O)N[C@@H](C)C(=O)N[C@H](C(=O)NCC#N)Cc2ccc(OC[C@H](N)CO)c(c2)-c2cc1ccc2O` (racemic) [Compound 612, rac-(8S,11S,14S)-N-(cyanomethyl)-18-hydroxy-11-methyl-14-[methyl-[rac-(2S)-4-amino-2-[[2-(4-tert-butylphenyl)-4,6-dimethyl-pyrimidine-5-carbonyl]amino]butanoyl]amino]-10,13-dioxo-3-[rac-(2R)-2-amino-3-hydroxy-propoxy]-9,12-diazatricyclo[13.3.1.12,6]icosa-1(18),2(20),3,5,15(19),16-hexaene-8-carboxamide], for which the MIC turned out to be 0.25 µM.

Staying with this assay, now noted: Escherichia coli, ATCC25922, Table 6, cation adjusted Mueller Hinton Broth + 0.002% Tween-80, 35° C., 22 hours.
For `CCCCc1ccc(-c2nc(C)c(C(=O)N[C@@H](CCN)C(=O)N(C)[C@@H]3C(=O)N[C@@H](C)C(=O)N[C@H](C(=O)NCC#N)Cc4ccc(OCCN)c(c4)-c4cc3ccc4OCCN)c(C)n2)nc1` (racemic) [Compound 293, rac-(8S,11S,14S)-3,18-bis(2-aminoethoxy)-N-(cyanomethyl)-11-methyl-14-[methyl-[rac-(2S)-4-amino-2-[[2-(5-butyl-2-pyridyl)-4,6-dimethyl-pyrimidine-5-carbonyl]amino]butanoyl]amino]-10,13-dioxo-9,12-diazatricyclo[13.3.1.12,6]icosa-1(18),2(20),3,5,15(19),16-hexaene-8-carboxamide], the MIC came out at 1.5 µM.
For `Cc1nc(-c2ccc(OC3(C)CC3)cc2)nc(C)c1C(=O)N[C@@H](CCN)C(=O)N(C)[C@@H]1C(=O)N[C@@H](C)C(=O)N[C@H](C(=O)NCC#N)Cc2ccc(OCCN)c(c2)-c2cc1ccc2OCCN` (racemic) [Compound 344, rac-(8S,11S,14S)-3,18-bis(2-aminoethoxy)-N-(cyanomethyl)-11-methyl-14-[methyl-[rac-(2S)-4-amino-2-[[4,6-dimethyl-2-[4-(1-methylcyclopropoxy)phenyl]pyrimidine-5-carbonyl]amino]butanoyl]amino]-10,13-dioxo-9,12-diazatricyclo[13.3.1.12,6]icosa-1(18),2(20),3,5,15(19),16-hexaene-8-carboxamide], the MIC came out at 0.38 µM.
The same measure, in the same setting: the result for `Cc1nc(C#CC(C)(C)C)ncc1C(=O)N[C@@H](CCN)C(=O)N(C)[C@@H]1C(=O)N[C@@H](C)C(=O)N[C@H](C(=O)NCC#N)Cc2ccc(OCCN)c(c2)-c2cc1ccc2OCCN` (racemic) [Compound 228, rac-(8S,11S,14S)-3,18-bis(2-aminoethoxy)-N-(cyanomethyl)-11-methyl-14-[methyl-[rac-(2S)-4-amino-2-[[2-(3,3-dimethylbut-1-ynyl)-4-methyl-pyrimidine-5-carbonyl]amino]butanoyl]amino]-10,13-dioxo-9,12-diazatricyclo[13.3.1.12,6]icosa-1(18),2(20),3,5,15(19),16-hexaene-8-carboxamide] reads 2.3 µM.

One may read the MIC as the lowest concentration found to suppress growth.
